Experimental findings from ChEMBL document CHEMBL1201862, “PubChem BioAssay data set” (2004) are described below.

Calls of active or inactive are those of the source. Bounds are passed on as bounds.

Data set [1] deals with Streptococcus sp. 'group A'. Nature of the data set: growth inhibition of control SK(-) GAS strain, dose response, counter-screen for streptokinase expression inhibitor project, luminescence, kanamycin, BacTiterGlo, confirmation (AID 1900). The data set is classed as functional, organism-based.
Data set [2] has as its target T1, Streptokinase A (Streptococcus pyogenes serotype M1, UniProt P10520).
T1 sequence (P10520 whole entry): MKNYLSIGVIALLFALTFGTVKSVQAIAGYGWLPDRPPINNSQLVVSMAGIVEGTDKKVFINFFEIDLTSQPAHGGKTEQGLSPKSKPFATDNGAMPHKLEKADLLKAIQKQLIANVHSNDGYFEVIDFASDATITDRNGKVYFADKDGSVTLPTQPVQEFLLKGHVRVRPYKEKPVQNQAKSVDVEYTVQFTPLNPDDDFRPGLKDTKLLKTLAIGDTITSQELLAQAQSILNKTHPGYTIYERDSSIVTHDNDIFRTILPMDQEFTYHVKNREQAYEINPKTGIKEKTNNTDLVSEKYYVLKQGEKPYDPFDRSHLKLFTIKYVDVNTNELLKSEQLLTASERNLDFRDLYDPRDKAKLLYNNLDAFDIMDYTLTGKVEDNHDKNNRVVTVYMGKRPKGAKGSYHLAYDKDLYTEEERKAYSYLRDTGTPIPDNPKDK
Nature of the data set: S. pyogenes streptokinase expression inhibitors, potency, dose response, plasminogen activation absorbance, OD405 (AID 1914).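 Also: secreted streptokinase activity via plasminogen activation per viability signal from cell pellet.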 It is filed as functional, Streptococcus pyogenes M1 GAS.

In data set [3] the test system is Streptococcus. Put plainly: Group A Streptococcus viability loss, dose response, counter-screen for streptokinase expression inhibitor project, luminescence, BacTiterGlo (AID 1915).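 Also: potency for reduction of bacterial viability or growth.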 The data set is classed as functional, organism-based. (In general: Counterscreens check selectivity or assay interference.)
Data set [4] concerns the target Sphingosine 1-phosphate receptor 2 (Homo sapiens, UniProt O95136). Nature of the data set: Dose Response Cell Based Assay for Agonists of the S1P2 Receptor. [Related pubchem assays: 729, 736, 843 ]. It is filed as functional.
For data set [5], the target named is T2, Carboxy-terminal domain RNA polymerase II polypeptide A small phosphatase 1 (Homo sapiens, UniProt Q9GZU7).
T2 sequence (Q9GZU7 whole entry): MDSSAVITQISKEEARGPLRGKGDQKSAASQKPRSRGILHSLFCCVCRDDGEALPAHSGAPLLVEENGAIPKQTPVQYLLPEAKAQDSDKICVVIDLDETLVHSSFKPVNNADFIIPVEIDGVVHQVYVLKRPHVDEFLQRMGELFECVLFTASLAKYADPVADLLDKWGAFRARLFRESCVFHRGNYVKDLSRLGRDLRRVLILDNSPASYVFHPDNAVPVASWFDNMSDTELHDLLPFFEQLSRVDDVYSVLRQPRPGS
Put plainly: inhibitors of CTDSP1, concentration-response testing, biochemical assay, absorbance-based, actives from ultra-high-throughput screening (AID 540297). The data set is classed as functional.

The target of data set [6] is Protein-tyrosine kinase 2-beta (Homo sapiens, UniProt Q14289).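 Also: potency of inhibitors of PYK2 kinase phosphorylation of poly-GT substrate.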
Data set [7] concerns the target Cytochrome P450 2C19 (Homo sapiens, UniProt P33261). Put plainly: Cytochrome panel assay with activity outcomes. Panel member name: p450-cyp2c19 Compounds with AC50 equal or less than 10 uM are considered active. It is filed as functional. The note with it: read-out: AC50.
Data set [8] concerns the target T3, Cytochrome P450 1A2 (Homo sapiens, UniProt P05177).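 Also: PubChem cytochrome P450 panel assay, CYP1A2 panel member.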
T3 sequence (P05177 whole entry): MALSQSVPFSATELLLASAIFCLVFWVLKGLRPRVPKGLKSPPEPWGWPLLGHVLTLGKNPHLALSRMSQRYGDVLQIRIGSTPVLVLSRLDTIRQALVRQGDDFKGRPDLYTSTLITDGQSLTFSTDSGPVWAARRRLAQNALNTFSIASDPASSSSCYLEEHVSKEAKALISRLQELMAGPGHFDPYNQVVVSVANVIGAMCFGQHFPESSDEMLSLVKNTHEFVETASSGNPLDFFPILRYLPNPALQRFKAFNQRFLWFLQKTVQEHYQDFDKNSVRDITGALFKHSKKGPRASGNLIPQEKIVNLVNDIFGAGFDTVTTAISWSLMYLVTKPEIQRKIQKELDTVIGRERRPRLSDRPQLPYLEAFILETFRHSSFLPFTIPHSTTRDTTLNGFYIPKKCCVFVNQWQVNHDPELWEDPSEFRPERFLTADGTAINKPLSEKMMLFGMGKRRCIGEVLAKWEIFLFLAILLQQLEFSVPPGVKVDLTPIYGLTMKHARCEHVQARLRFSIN

Data set [9] addresses Cytochrome P450 2C9 (Homo sapiens, UniProt P11712).
The target of data set [10] is Cytochrome P450 3A4 (Homo sapiens, UniProt P08684).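 Also: CYP3A4 tested as one member of a cytochrome P450 panel screen.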
The target of data set [11] is E3 ubiquitin-protein ligase Mdm2 (Homo sapiens, UniProt Q00987). Put plainly: enhancers of MDM2-luciferase reporter signal, concentration-effect titration, project on inhibitors of MDM2 ubiquitin ligase, cellular assay, luminescent readout, 384-well plate format (AID 1394).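 Also: MDM2 E3 inhibitors raise luminescence so EC50 is for signal enhancement.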 The data set is classed as functional. For orientation: Reporter assays use an easily measured gene product as a stand-in for the process of interest.

Data set [12] in a line: HeLa cell cytotoxicity, dose response, cytotoxicity control for MgcRacGAP inhibitor project (AID 624300). The data set is classed as functional.
Data set [13] in a line: inhibitors of HIV Env-driven cell fusion, dose response, cherry-pick (AID 652057). It is filed as functional, cell-based.
The nature of data set [14]: CEM21 lymphoblast cell cytotoxicity, dose response, cytotoxicity control for viral fusion inhibitor project, CellTiter-Glo luminescence, cherry-picked (AID 652042).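 Also: potency for signal decrease meaning cytotoxicity.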 The data set is classed as functional, cell-based.
Data set [15] in a line: Vero cell cytotoxicity, dose response, cytotoxicity control for Vif-APOBEC3G degradation inhibitor project, Vero cells (AID 1117358). It is filed as functional. The note with it: Human immunodeficiency virus 1, Vero.
Data set [16] can be described thus: half-maximal inhibitory concentration for glucagon-like peptide-1 release, STC-1 cell line, dose-response (AID 1117345). The data set is classed as functional, cell-based.
Data set [17] is described as follows: Glucagon-like peptide 1 release potency, NCI-H716 cell line, dose-response, half-maximal inhibitory concentration (AID 1117344). It is filed as functional, cell-based.
Data set [18] addresses T4, Bcl-2-related protein A1 (Mus musculus, UniProt Q07440).
T4 sequence (Q07440 whole entry): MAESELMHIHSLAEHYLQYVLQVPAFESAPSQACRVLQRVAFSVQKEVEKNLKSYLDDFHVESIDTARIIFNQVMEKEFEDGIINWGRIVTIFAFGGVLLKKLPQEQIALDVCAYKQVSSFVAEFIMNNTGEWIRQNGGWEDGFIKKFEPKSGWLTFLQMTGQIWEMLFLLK
Put plainly: Bfl-1 inhibitors blocking BH3 peptide binding, confirmation, biochemical, TR-FRET, mouse Bfl-1 (AID 621).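 Also: TR-FRET binding of GST-Bfl-1 to FITC-labelled Bid peptide via terbium antibody.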 In general terms: In TR-FRET formats the signal depends on donor and acceptor labels being close together.

In data set [19] the target is T4, Bcl-2-related protein A1. Put plainly: Bfl-1 binding inhibitors, SAR follow-up, biochemical, fluorescence polarization (AID 1070).
For data set [20], the target named is Glyceraldehyde-3-phosphate dehydrogenase (Homo sapiens, UniProt P04406).
Data set [21] can be described thus: P. falciparum late gametocyte killing, dose response, luminescence (AID 1117278).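 Also: gametocytes exposed to compound for 24 hours.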 The data set is classed as functional, cell-based.
Data set [22] is described as follows: Jurkat T cell cytotoxicity, dose response, cytotoxicity control for P. falciparum gametocyte viability project, luminescence (AID 1117277).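 Also: potency reflects loss of cellular ATP meaning fewer viable cells.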 It is filed as functional, cell-based.

E3 ubiquitin-protein ligase Mdm2, sequence (Q00987 whole entry): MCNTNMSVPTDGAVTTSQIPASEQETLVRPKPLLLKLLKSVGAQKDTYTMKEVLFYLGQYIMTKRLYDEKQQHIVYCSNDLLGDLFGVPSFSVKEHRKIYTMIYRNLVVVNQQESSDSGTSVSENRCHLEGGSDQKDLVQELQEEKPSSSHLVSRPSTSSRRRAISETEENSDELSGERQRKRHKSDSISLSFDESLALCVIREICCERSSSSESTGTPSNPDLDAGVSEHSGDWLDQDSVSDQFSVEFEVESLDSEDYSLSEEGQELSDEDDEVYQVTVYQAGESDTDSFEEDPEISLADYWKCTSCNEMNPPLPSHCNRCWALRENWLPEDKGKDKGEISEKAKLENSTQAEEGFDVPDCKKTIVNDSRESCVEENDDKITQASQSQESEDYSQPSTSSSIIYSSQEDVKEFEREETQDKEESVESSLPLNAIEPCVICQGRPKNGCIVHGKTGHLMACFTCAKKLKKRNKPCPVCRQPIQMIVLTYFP
Sphingosine 1-phosphate receptor 2, sequence (O95136 whole entry, the tested form may be a part): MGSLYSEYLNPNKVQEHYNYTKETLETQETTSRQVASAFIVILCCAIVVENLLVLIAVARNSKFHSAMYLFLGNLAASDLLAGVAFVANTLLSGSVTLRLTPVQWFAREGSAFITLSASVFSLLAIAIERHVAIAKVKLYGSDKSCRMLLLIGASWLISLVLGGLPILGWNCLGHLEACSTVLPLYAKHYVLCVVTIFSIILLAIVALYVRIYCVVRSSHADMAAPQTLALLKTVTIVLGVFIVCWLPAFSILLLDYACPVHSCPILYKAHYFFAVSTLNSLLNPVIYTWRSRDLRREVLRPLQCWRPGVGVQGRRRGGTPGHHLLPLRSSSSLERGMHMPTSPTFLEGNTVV
Cytochrome P450 2C19, sequence (P33261 whole entry): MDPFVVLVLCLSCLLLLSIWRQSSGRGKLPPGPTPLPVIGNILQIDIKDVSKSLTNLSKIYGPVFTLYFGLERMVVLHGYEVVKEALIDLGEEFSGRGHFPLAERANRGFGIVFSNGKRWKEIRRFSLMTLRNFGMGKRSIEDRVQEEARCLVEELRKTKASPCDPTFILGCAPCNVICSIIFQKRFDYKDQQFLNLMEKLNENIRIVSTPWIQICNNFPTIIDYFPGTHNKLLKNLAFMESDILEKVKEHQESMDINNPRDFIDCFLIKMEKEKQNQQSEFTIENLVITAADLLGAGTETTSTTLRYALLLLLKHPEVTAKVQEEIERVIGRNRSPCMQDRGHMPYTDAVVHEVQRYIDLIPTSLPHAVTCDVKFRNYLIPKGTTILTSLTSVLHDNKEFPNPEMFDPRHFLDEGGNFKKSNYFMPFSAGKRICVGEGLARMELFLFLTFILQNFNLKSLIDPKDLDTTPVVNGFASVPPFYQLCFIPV
Protein-tyrosine kinase 2-beta, sequence (Q14289 whole entry): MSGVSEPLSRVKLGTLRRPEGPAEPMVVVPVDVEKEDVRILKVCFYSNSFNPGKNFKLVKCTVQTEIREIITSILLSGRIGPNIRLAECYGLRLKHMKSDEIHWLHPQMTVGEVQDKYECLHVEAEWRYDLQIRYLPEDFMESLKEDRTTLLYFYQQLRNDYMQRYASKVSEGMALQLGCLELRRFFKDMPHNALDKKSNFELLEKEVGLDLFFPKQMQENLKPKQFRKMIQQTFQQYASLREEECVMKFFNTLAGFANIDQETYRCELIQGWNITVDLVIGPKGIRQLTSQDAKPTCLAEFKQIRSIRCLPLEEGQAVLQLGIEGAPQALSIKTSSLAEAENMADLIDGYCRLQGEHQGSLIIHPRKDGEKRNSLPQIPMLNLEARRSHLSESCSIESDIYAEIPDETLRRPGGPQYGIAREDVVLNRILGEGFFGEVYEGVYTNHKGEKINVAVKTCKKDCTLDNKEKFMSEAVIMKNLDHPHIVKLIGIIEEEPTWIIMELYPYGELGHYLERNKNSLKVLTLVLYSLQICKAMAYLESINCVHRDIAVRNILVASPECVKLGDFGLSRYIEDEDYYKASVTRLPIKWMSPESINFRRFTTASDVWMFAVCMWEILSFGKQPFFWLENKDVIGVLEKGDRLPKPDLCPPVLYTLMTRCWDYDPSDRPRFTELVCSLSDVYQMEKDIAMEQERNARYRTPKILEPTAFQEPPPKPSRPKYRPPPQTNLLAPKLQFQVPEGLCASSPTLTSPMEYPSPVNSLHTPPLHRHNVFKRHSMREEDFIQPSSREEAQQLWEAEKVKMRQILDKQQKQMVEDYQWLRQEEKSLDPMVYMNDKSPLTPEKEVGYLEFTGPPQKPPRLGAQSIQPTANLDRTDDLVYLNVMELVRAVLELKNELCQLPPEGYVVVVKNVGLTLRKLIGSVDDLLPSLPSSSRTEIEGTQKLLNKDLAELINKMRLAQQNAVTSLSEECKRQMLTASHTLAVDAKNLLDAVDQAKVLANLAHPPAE
Cytochrome P450 3A4, sequence (P08684 whole entry): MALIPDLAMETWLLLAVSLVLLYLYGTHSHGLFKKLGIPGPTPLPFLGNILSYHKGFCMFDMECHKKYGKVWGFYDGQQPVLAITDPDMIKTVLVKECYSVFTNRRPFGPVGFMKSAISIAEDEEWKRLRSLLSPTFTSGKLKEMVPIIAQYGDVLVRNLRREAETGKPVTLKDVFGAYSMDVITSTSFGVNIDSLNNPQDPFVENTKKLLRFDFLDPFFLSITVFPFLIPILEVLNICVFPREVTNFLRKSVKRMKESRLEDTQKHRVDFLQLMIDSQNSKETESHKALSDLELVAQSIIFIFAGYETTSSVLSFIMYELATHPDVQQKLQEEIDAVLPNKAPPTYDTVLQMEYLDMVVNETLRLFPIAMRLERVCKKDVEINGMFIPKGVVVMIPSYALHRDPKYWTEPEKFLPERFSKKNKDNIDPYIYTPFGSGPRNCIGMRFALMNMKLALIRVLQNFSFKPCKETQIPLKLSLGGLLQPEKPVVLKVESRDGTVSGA
Cytochrome P450 2C9, sequence (P11712 whole entry): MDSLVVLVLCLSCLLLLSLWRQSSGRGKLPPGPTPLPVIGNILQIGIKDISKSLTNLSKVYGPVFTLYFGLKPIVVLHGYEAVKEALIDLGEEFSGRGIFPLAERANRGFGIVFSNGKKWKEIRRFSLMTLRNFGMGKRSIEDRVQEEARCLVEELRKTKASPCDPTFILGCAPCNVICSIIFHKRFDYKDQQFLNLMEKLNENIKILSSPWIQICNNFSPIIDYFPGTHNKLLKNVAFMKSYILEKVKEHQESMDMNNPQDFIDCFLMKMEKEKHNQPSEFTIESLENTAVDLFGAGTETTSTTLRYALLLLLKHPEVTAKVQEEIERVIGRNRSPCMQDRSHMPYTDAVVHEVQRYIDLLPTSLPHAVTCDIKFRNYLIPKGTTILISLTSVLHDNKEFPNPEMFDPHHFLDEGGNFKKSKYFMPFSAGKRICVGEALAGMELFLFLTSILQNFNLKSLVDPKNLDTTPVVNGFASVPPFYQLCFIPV
Glyceraldehyde-3-phosphate dehydrogenase, sequence (P04406 whole entry): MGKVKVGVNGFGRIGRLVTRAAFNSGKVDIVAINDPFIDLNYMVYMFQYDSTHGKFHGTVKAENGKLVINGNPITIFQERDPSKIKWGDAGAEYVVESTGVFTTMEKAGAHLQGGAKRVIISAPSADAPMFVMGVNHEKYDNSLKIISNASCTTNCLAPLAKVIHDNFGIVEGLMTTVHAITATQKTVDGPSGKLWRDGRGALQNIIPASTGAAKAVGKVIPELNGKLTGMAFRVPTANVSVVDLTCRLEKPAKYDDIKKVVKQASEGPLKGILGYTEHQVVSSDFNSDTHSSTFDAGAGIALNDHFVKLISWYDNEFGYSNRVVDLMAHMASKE

With `COc1ccc(Cn2c(-c3ccco3)nc3oc4cc(OC)ccc4c(=O)c3c2=O)cc1`, the EC50 in data set [1] was 25.5 µM (active); in data set [2] it was > 150 µM (not active); in [3], > 150 µM (not active); in data set [4] it was > 50 µM (not active). Besides, the IC50 in [5] was 7.58 µM (active).
In the case of `C=CCn1c(P(=O)(O)c2ccccc2)nc2ccccc21`, the IC50 in data set [6] was 26.6 µM (not active). Also, the AC50 in [7] is 6.31 µM (inconclusive); in data set [8], 15.8 µM (inconclusive); in data set [9], 25.1 µM (inconclusive); in data set [10], “inconclusive”.
Consider `Cc1ccsc1C1Nc2ccc3ncccc3c2C2=C1C(=O)CCC2` (stereo not given), for which the EC50 in data set [11] is reported as 25 µM (not active).
As for `COc1ccc2[nH]c3c(N4CCC(O)(c5cccc(C(F)(F)F)c5)CC4)ncnc3c2c1`, the CC50 in data set [12] was 33 µM (active); in data set [15] it was 29.4 µM (active). Also, the AC50 in [13] was 9.77 µM (active); in data set [14], 7.3 µM (active).
With `O=c1oc2ccccc2c(O)c1C(CC(O)c1ccc(-c2ccc(Br)cc2)cc1)c1ccccc1` (stereo not given) [BROMODIOLONE], the IC50 in data set [16] was 9.16 µM (inactive); in data set [17] it was > 40 µM (inactive).
Turning to `O=C1C(Cl)=C(N2CCN(c3ccc(F)cc3)CC2)C(=O)N1c1ccc(Cl)c(Cl)c1`, the IC50 in data set [18] was 19.1 µM (active); in data set [19], > 100 µM (not active).
Take `O=C1C(Cl)=C(N2CCN(Cc3ccc4c(c3)OCO4)CC2)C(=O)N1c1ccc([N+](=O)[O-])cc1`: the results for the IC50 in [20], in [18] and in data set [19] were > 100 µM (not active), 4.59 µM (active) and 4.68 µM (active), respectively.
For the compound `NC(=O)c1c(NC(=O)C2CCCO2)sc2c1CCCC2` (stereo not given), in [11], the EC50 was 7.26 µM (not active).
As for `COc1ccc2ncc(S(=O)(=O)c3ccccc3)c(N3CCN(c4ccccc4)CC3)c2c1`, the EC50 is 9.42 µM (active) in data set [1], > 150 µM (not active) in data set [2] and 74.8 µM (active) in data set [3]. The IC50 in data set [21] was > 109 µM (inactive); in data set [22], > 83.3 µM (inactive).
Turning to `Cc1cc(-c2nnc(SCC(=O)NC3CCCC3)o2)no1`, the EC50 in data set [4] was > 50 µM (not active).
Regarding `COC(=O)C(C(=O)Nc1ccc(OC)cc1)C1CCCCCC1` (stereo not given), in data set [15], the CC50 is > 40 µM (active).

Usually EC50 stands for the concentration giving half of the maximal effect. For orientation: IC50 means the concentration at which inhibition is half-maximal. One may read the AC50 as the concentration giving half of the maximal activity seen. Broadly, the CC50 is the concentration that lowers cell viability or growth by half.
